In paper PMC11191095, “QSAR Reveals Decreased Lipophilicity of Polar Residues Determines the Selectivity of Antimicrobial Peptide Activity” (ACS Omega, 2024):
Where a SMILES comes first, the peptide text is derived from it.

Columns and labels:
Experiment in all cases: microbe, parasite or virus in culture
E. coli NCTC 12923 = type: cell-based, Escherichia coli
Description: (§1) Antimicrobial activity was evaluated against a panel of 18 pathogens consisting of eight Gram-negative strains (E. coli NCTC 12923, E. coli LEC001, Pseudomonas aeruginosa PAO1, P. aeruginosa NCTC 13437, Acinetobacter baumannii ATCC 17978, A. baumannii AYE, Klebsiella pneumoniae M6, K. pneumoniae NCTC 13368), four Gram-positive strains (Staphylococcus aureus ATCC 9144, S. aureus NCTC 13616, S. aureus USA300, S. aureus 1199B) and six fungi (Candida auris TDG 1912, C. albicans NCPF 8018, C. krusei NCPF 3876, C. tropicalis NCPF 8760, and C. parapsilosis NCPF 3209). Pathogens were grown in noncation adjusted Mueller Hinton broth (MHB, for bacteria) or Roswell Park Memorial Institute (RPMI 1640) + 2% glucose (for fungi) at 37 °C with 180 rpm shaking and maintained on solid media (tryptic soy agar for bacteria and Sabouraud dextrose agar for fungi). For an antibiogram, see Suppl.
(§2) The 46 peptides were serially diluted (128 to 2 μg/mL) in media down polypropylene 96-well plates. Bacteria or fungi, diluted from an overnight culture to an OD600 of 0.01, were added to the serially diluted peptides at a 1:1 ratio resulting in a starting cell density of ∼5 × 10^5 CFU/mL. Plates were incubated at 37 °C for 20 h, and the optical density was determined spectrophotometrically at 600 nm. Minimum inhibition concentrations (MICs) were determined from a minimum of three biological repeats and are reported in μg/mL as well as μM. […] The MIC50 or MIC90 is defined as the lowest peptide concentration that results in 50% or 90% growth inhibition over a 20 h treatment period, respectively.

E. coli LEC001 = type: cell-based, Escherichia coli
Description: as §1, §2

C. auris TDG 1912 = type: cell-based, Candida auris; settings: TDG 1912, 20 h
Description: as §1, §2

A. baumannii AYE = type: cell-based, Acinetobacter baumannii; settings: 20 h
Description: as §1, §2

A. baumannii ATCC 17978 = type: cell-based, Acinetobacter baumannii
Description: as §1, §2

[1] = tested on: S. aureus (MRSA) NCTC 13616; type: cell-based, Staphylococcus aureus
Description: as §1, §2

S. aureus (MRSA) USA300 = type: cell-based, Staphylococcus aureus; settings: USA300, 20 h
Description: as §1, §2

[2] = tested on: S. aureus (MSSA) ATCC 9144; type: cell-based, Staphylococcus aureus; settings: ATCC 9144, 20 h
Description: as §1, §2

P. aeruginosa NCTC 13437 = type: cell-based, Pseudomonas aeruginosa
Description: as §1, §2

K. pneumoniae M6 = type: cell-based, Klebsiella pneumoniae
Description: as §1, §2

K. pneumoniae NCTC 13368 = type: cell-based, Klebsiella pneumoniae
Description: as §1, §2

[3] = tested on: C. parapsilosis NCPF 3209; type: cell-based; settings: NCPF 3209, 20 h
Description: as §1, §2

C. glabrata NCPF 8018 = type: cell-based; settings: NCPF 8018, 20 h
Description: as §1, §2

C. krusei NCPF 3876 = type: cell-based; settings: NCPF 3876, 20 h
Description: as §1, §2

C. tropicalis NCPF 8760 = type: cell-based; settings: NCPF 8760, 20 h
Description: as §1, §2

C. albicans NCPF 3281 = type: cell-based; settings: NCPF 3281, 20 h
Description: as §1, §2

S. aureus (MRSA) 1199B = type: cell-based, Staphylococcus aureus; settings: S. aureus (MRSA) 1199B (R); shown in µM
Description: as §1, §2

P. aeruginosa PAO1 = type: cell-based, Pseudomonas aeruginosa
Description: as §1, §2

Row | Compound | Modal MIC (E. coli NCTC 12923; NCTC 12923, 20 h) [µM] | Modal MIC (E. coli LEC001; LEC001, 20 h) [µM] | Modal MIC50 (C. auris TDG 1912) [µM] | Modal MIC90 (C. auris TDG 1912) [µM] | Modal MIC (A. baumannii AYE; AYE) [µM] | Modal MIC (A. baumannii ATCC 17978; ATCC 17978, 20 h) [µM] | Modal MIC ([1]; NCTC 13616, 20 h) [µM] | Modal MIC (S. aureus (MRSA) USA300) [µM] | Modal MIC [2] [µM] | Modal MIC (P. aeruginosa NCTC 13437; NCTC 13437, 20 h) [µM] | Modal MIC50 [3] [µM] | Modal MIC90 [3] [µM] | Modal MIC50 (C. glabrata NCPF 8018) [µM] | Modal MIC90 (C. glabrata NCPF 8018) [µM] | Modal MIC50 (C. krusei NCPF 3876) [µM] | Modal MIC90 (C. krusei NCPF 3876) [µM] | Modal MIC50 (C. tropicalis NCPF 8760) [µM] | Modal MIC90 (C. tropicalis NCPF 8760) [µM] | Modal MIC50 (C. albicans NCPF 3281) [µM] | Modal MIC90 (C. albicans NCPF 3281) [µM] | also measured
1 | CC[C@H](C)[C@H](NC(=O)[C@H](CCCCN)NC(=O)[C@H](CC(C)C)NC(=O)CNC(=O)[C@H](C)NC(=O)[C@H](CCCCN)NC(=O)[C@H](CC(C)C)NC(=O)[C@H](C)NC(=O)[C@H](CCCCN)NC(=O)CNC(=O)[C@H](CC(C)C)NC(=O)[C@H](Cc1ccccc1)NC(=O)[C@H](CO)NC(=O)[C@H](C)NC(=O)[C@H](CC(C)C)NC(=O)CN)C(=O)NCC(=O)N[C@@H](CO)C(=O)N[C@@H](Cc1c[nH]cn1)C(=O)N[C@@H](CC(C)C)C(=O)N[C@@H](CC(C)C)C(=O)NCC(=O)NCC(=O)N[C@@H](C)C(=O)N1CCC[C@H]1C(=O)N[C@@H](CCC(N)=O)C(=O)O [CPF-P2] (H-GLASFLGKALKAGLKIGSHLLGGAPQ-OH) | 2.9 | 5.8 | > 46 | > 46 | 2.9 | 1.4 | 1.4 | 2.9 | 1.4 | 46 | > 46 | > 46 | > 46 | > 46 | 23 | 23 | 5.8 | 5.8 | > 46 | > 46 | Modal MIC (K. pneumoniae M6; M6, 20 h): 46 µM; Modal MIC (K. pneumoniae NCTC 13368; NCTC 13368, 20 h): 46 µM
2 | CC[C@H](C)[C@H](NC(=O)CNC(=O)[C@H](CCCNC(=N)N)NC(=O)[C@@H](N)Cc1c[nH]c2ccccc12)C(=O)N[C@@H](CCCNC(=N)N)C(=O)NCC(=O)N[C@@H](Cc1ccc(O)cc1)C(=O)N[C@@H](CCCCN)C(=O)NCC(=O)NCC(=O)N[C@@H](Cc1ccc(O)cc1)C(=O)N[C@H](C(=O)NCC(=O)N[C@@H](CCCNC(=N)N)C(=O)N[C@@H](Cc1ccccc1)C(=O)N[C@@H](CCCCN)C(=O)N[C@@H](CCC(N)=O)C(=O)N[C@H](C(=O)N[C@@H](CCCCN)C(=O)N[C@@H](Cc1ccc(O)cc1)C(N)=O)[C@@H](C)O)[C@@H](C)O [W-OmB-Ca] (H-WRGIRGYKGGYTGRFKQTKY-NH2) | 52.5 | – | – | – | 13.1 | 26.2 | – | – | 52.5 | – | > 52.5 | > 52.5 | > 52.5 | > 52.5 | > 52.5 | > 52.5 | > 52.5 | > 52.5 | > 52.5 | > 52.5 | –
3 | CC[C@H](C)[C@H](NC(=O)[C@H](CCCCN)NC(=O)[C@H](CC(C)C)NC(=O)CNC(=O)[C@H](C)NC(=O)[C@H](CCCCN)NC(=O)[C@H](CC(C)C)NC(=O)[C@H](C)NC(=O)[C@H](CCCCN)NC(=O)CNC(=O)[C@H](CC(C)C)NC(=O)[C@@H](N)Cc1ccccc1)C(=O)NCC(=O)N[C@@H](CO)C(=O)N[C@@H](Cc1c[nH]cn1)C(=O)N[C@@H](CC(C)C)C(N)=O [CPF-P2a] (H-FLGKALKAGLKIGSHL-NH2) | 18.6 | 37.1 | > 74 | > 74 | 37.1 | 18.6 | – | – | – | – | > 74 | > 74 | > 74 | > 74 | > 74 | > 74 | > 74 | > 74 | > 74 | > 74 | Modal MIC (S. aureus (MRSA) 1199B): > 74 µM
4 | CC[C@H](C)[C@H](NC(=O)[C@H](CCCCN)NC(=O)[C@H](CO)NC(=O)[C@H](C)NC(=O)[C@H](Cc1c[nH]c2ccccc12)NC(=O)CN)C(=O)NCC(=O)N[C@@H](CCC(N)=O)C(=O)N[C@H](C(=O)N[C@@H](CC(C)C)C(=O)NCC(=O)N[C@@H](CCCCN)C(=O)N[C@H](C(=O)N[C@@H](C)C(=O)N[C@@H](CCCCN)C(=O)N[C@H](C(=O)NCC(=O)N[C@@H](CC(C)C)C(=O)N[C@@H](CCCCN)C(=O)N[C@@H](CCC(=O)O)C(=O)N[C@@H](CC(C)C)C(=O)N[C@H](C(=O)N[C@@H](CCC(N)=O)C(=O)N1CCC[C@H]1C(=O)N[C@@H](CCCCN)C(=O)O)[C@@H](C)CC)C(C)C)[C@@H](C)CC)[C@@H](C)O [XPF] (H-GWASKIGQTLGKIAKVGLKELIQPK-OH) | 1.5 | 1.5 | – | – | 1.5 | 1.5 | 46.5 | 46.5 | 11.6 | 46.5 | > 46.5 | > 46.5 | > 46.5 | > 46.5 | > 46.5 | > 46.5 | 11.6 | 11.6 | > 46.5 | > 46.5 | Modal MIC (P. aeruginosa PAO1; PAO1, 20 h): 46.5 µM; Modal MIC (K. pneumoniae M6; M6, 20 h): 23.2 µM; Modal MIC (K. pneumoniae NCTC 13368; NCTC 13368, 20 h): 11.6 µM
5 | CC[C@H](C)[C@H](NC(=O)CNC(=O)[C@H](CCCCN)NC(=O)[C@H](Cc1c[nH]c2ccccc12)NC(=O)[C@H](Cc1c[nH]c2ccccc12)NC(=O)[C@@H](N)Cc1c[nH]c2ccccc12)C(=O)N[C@@H](CCCNC(=N)N)C(=O)NCC(=O)N[C@@H](Cc1ccc(O)cc1)C(=O)N[C@@H](CCCCN)C(=O)NCC(=O)NCC(=O)N[C@@H](Cc1ccc(O)cc1)C(=O)N[C@@H](CCCCN)C(=O)NCC(=O)N[C@@H](C)C(=O)N[C@@H](Cc1ccccc1)C(=O)N[C@@H](CCCCN)C(=O)N[C@@H](CCC(N)=O)C(=O)N[C@H](C(=O)N[C@@H](CCCCN)C(=O)N[C@@H](Cc1ccc(O)cc1)C(N)=O)[C@@H](C)O [W3(Os-C)a] (H-WWWKGIRGYKGGYKGAFKQTKY-NH2) | 23.5 | – | – | – | 5.9 | 11.7 | – | – | 11.7 | – | > 46.9 | > 46.9 | > 46.9 | > 46.9 | > 46.9 | > 46.9 | > 46.9 | > 46.9 | > 46.9 | > 46.9 | –
6 | Colistin [reference compound] | – | – | – | – | – | – | – | – | – | – | – | – | – | – | – | – | – | – | – | – | Modal MIC (E. coli NCTC 12923; E. coli NCTC 12923 (S), MHB, ~5×10^5 CFU/mL, 37 °C, 20 h, OD600, min. three biological repeats): 0.0625 µg/mL; Modal MIC (E. coli LEC001; E. coli LEC001 (R), MHB, 37 °C, 20 h, OD600, min. three biological repeats): 2 µg/mL; Modal MIC (A. baumannii AYE; A. baumannii AYE (R), MHB, 37 °C, OD600, min. three biological repeats): 1 µg/mL; Modal MIC (A. baumannii ATCC 17978; A. baumannii ATCC 17978 (S), MHB, 37 °C, 20 h, OD600, min. three biological repeats): 1 µg/mL; Modal MIC ([1]; S. aureus (MRSA) NCTC 13616 (R), MHB, 37 °C, 20 h, OD600, min. three biological repeats): > 128 µg/mL; Modal MIC (P. aeruginosa NCTC 13437; P. aeruginosa NCTC 13437 (R), MHB, 37 °C, 20 h, OD600, min. three biological repeats): 4 µg/mL; Modal MIC (P. aeruginosa PAO1; P. aeruginosa PAO1 (S), MHB, 37 °C, 20 h, OD600, min. three biological repeats): 2 µg/mL; Modal MIC (K. pneumoniae M6; K. pneumoniae M6 (S), MHB, 37 °C, 20 h, OD600, min. three biological repeats): 2 µg/mL; Modal MIC (K. pneumoniae NCTC 13368; K. pneumoniae NCTC 13368 (R), MHB, 37 °C, 20 h, OD600, min. three biological repeats): 1 µg/mL
